# Patent US20150352108A1, “AMINO-PYRIMIDINE COMPOUNDS AS INHIBITORS OF TBK1 AND/OR IKK EPSILON” (Alzheimer's Institute of America, priority 2009, published 2015)
# Assays:
# BLyS mRNA, normal PBMCs = test: Agonist induced BLyS mRNA in PBMCs from healthy donors (qRT-PCR); assay type: cell-based, human; details: LMW poly(I:C), serial dilutions
# Source text: (§1) To determine if inhibition of IKKε and/or TBK1 modulates nucleic acid agonist induced gene expression, high molecular weight poly(I:C) (MDA5 agonist) and low weight poly(I:C) (RIG-I agonist) were electroporated into human peripheral blood mononuclear cells (PBMCs) obtained from normal donors, or low molecular weight Poly(I:C) was electroporated into PBMCs from donors that have Systemic Lupus Erythematosus (SLE). Induction of IFN-α2, IFN-β, and BLyS mRNA production was monitored by qRT-PCR.
# (§2) Human PBMCs were collected from healthy donors using routine laboratory procedures. PBMCs from SLE patients were purchased from Astarte Biologics (Redmond, Wash.). The PBMCs were electroporated using Nucleofector® Kit V (Lonza, Walkersville, Md.) with 0.4 ug/mL of high molecular weight poly (I:C) (InvivoGen, San Diego, Calif.) or 0.4 ug/mL low molecular weight poly (I:C) (InvivoGen, San Diego, Calif.) and seeded into wells containing serial dilutions of Example Compound 5 (0.1% final DMSO concentration). […] RNA was quantitated using Quant-iT™ RiboGreen® RNA Assay Kit (Invitrogen, Carlsbad, Calif.). Reverse transcription and real-time PCR were performed using the QuantiTect Probe RT-PCR Kit (Qiagen, Germantown, Md.) and the 7300 Real-Time PCR System (Applied Biosytems, Foster City, Calif.). […]
# [1] = tested on: TBK1-mediated phosphorylation of IRF7; test: In-situ TBK1-mediated phosphorylation of IRF7 in HEK293T cells transfected with IRF7 and TBK1 (Western blot); assay type: cell-based
# Method: HEK293T cells were cotransfected in a 10-cm dish with IRF3 and IKKε expression plasmids using Lipofectamine 2000 (Invitrogen, Carlsbad, Calif.). The following day, cells were replated at 20,000 per well in 96-well plates and treated with test compounds (compounds according to Formula I) for 20 hours. Cell lysates were prepared and analyzed using an ELISA for phospho-Ser396 (anti-IRF3 capture antibody, Santa Cruz Biotechnology, Inc., Santa Cruz, Calif.; anti-p-Ser396 IRF3 detection antibody, Cell Signaling, Danvers, Mass.). pIRF3 levels in compound treated cells were normalized to DMSO treated cells (no compound). Cell viability was assayed in a parallel set of plates to monitor cytotoxic effects of the test compounds (CellTiter-Glo, Promega, Inc., Madison, Wis.). TBK1 activity was tested by Western blotting using a phospho-specific IRF7 antibody. Similar to above, HEK293T cells were transfected with IRF7 and TBK1 expression plasmids. Cells were seeded in 12-well plates at 150,000 per well and treated overnight with test compounds. Protein lysates were prepared and processed for Western blotting followed by detection using a phosphor-Ser477/Ser479 IRF7 antibody (BD Biosciences, San Jose, Calif.)
# IKKε = target: T1, IKKε (Homo sapiens, UniProt Q14164); test: In-vitro IKKε kinase assay ([γ33]ATP filter-plate); assay type: biochemical; details: text bins; read-out: IC50 for inhibition of the kinase activity of IKKε
# T1 construct: His-tag; made in house; host or cells: Sf9 insect cells
# T1 sequence (Q14164 1-716): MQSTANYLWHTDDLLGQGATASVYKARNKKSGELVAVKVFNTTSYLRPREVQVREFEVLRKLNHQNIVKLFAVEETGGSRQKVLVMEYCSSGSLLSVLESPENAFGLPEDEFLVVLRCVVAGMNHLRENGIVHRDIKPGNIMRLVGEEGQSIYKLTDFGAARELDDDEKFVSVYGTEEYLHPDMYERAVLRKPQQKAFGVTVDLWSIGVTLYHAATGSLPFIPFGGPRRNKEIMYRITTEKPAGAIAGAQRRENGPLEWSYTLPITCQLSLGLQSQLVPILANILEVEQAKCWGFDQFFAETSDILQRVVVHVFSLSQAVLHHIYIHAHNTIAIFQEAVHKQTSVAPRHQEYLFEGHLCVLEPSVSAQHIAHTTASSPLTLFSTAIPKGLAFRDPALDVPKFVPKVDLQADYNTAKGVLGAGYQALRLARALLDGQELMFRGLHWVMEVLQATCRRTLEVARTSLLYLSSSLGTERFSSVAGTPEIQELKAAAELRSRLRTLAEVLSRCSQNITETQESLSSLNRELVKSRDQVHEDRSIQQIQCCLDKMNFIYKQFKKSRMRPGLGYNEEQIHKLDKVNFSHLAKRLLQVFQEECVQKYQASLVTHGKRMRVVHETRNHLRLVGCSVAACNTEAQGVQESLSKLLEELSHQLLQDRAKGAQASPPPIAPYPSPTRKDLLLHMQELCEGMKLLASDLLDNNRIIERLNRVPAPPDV
# In short: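 His-tagged Sf9-expressed kinases at 0.1 or 0.02 μg/ml (TBK1) and 0.1 or 0.015 μg/ml (IKKε) for normal and sensitized formats, with myelin basic protein or casein substrate. ATP was at 2×Km (60 μM TBK1, 32 μM IKKε) plus 0.3 μCi [γ33]ATP. Reactions ran 30-45 min, were captured on P-81 filters, and counts were normalized to DMSO.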
# IFN-α2 mRNA, SLE PBMCs = test: Agonist induced IFN-α2 mRNA in PBMCs from SLE patients (qRT-PCR); assay type: cell-based, human; details: LMW poly(I:C), serial dilutions
# Source text: as §1, §2
# [2] = tested on: IFN-β1 mRNA, normal PBMCs; test: Agonist induced IFN-β1 mRNA in PBMCs from healthy donors (qRT-PCR); assay type: cell-based, human; details: LMW poly(I:C), serial dilutions
# Source text: as §1, §2
compound,measurement,setting,value
"N#Cc1cc(-c2ccnc(Nc3ccc(N4CCOCC4)cc3)n2)ccc1OC1CCOCC1 [Example 5, 5-(2-{[4-(Morpholin-4-yl)phenyl]amino}pyrimidin-4-yl)-2-(tetrahydro-2H-pyran-4-yloxy)benzaonitrile]",induction of BLyS mRNA,"BLyS mRNA, normal PBMCs",potently inhibited
same,inhibition of TBK1-mediated phosphorylation of IRF7,[1],inhibit
same,IC50,IKKε,< 5 nM
same,induction of IFN-α2 mRNA,"IFN-α2 mRNA, SLE PBMCs",potently inhibited
same,induction of IFN-β1 mRNA,[2],potently inhibited
